US20250122211A1, “NITROGEN-CONTAINING TETRACYCLIC COMPOUND, PREPARATION METHOD THEREFOR, AND MEDICAL USE THEREOF” (Jiangsu Hengrui Pharmaceuticals Co., Ltd., priority 2021, published 2025)
Where two headings read alike, the source gives them in different places.

Experiments:
Type in all cases: cell-based
MIA PaCa-2 cells = experiment: MIA PaCa-2 cell proliferation assay (CellTiter-Glo); settings: 72 h incubation, read-out: IC50 (nM), inhibitory activity against MIA PaCa-2 cell proliferation
Method: The inhibitory activity of the compounds of the present disclosure against MIA PaCa-2 cell proliferation was measured. Below is a brief description of the experimental method:
MIA PaCa-2 cells (ATCC, CRL-1420) were cultured in DMEM/HIGH GLUCOSE medium (GE, SH30243.01) containing 10% fetal bovine serum (Corning, 35-076-CV) and 2.5% horse serum (Beyotime Biological Tech., C0262) (i.e., complete medium). On the first day of the experiment, MIA PaCa-2 cells were seeded into a 96-well plate at a density of 500 cells/well using complete medium, with 90 µL of cell suspension per well, and the plate was incubated overnight in a 37° C., 5% CO2 cell incubator. On the second day, the test compounds, prepared in complete medium and serially diluted, were added at 10 μL/well. The final concentrations of the compounds were 9 concentration points obtained by a 5-fold serial dilution from 10 μM. A blank control containing 0.5% DMSO was set up. The plate was incubated for 72 h in a 37° C., 5% CO2 cell incubator. On the fifth day, the 96-well cell plate was removed from the incubator, and CellTiter-Glo® Luminescent Cell Viability Assay (Promega, G7573) was added at 50 μL/well. After 10 min of room temperature incubation, luminescence signals were measured using a multifunctional microplate reader (PerkinElmer, EnVision2015). The IC50 values for the inhibitory activity of the compounds were calculated using Graphpad Prism software.

H358 cells = experiment: H358 proliferation assay (CellTiter-Glo); settings: 120 h incubation, read-out: IC50 (nM), inhibitory activity against H358 cell proliferation
Method: The inhibitory activity of the compounds of the present disclosure against H358 cell proliferation was measured. Below is a brief description of the experimental method: H358 cells (ATCC, CRL-5807) were cultured in RPMI1640 medium (Hyclone, SH30809.01) containing 10% fetal bovine serum (Corning, 35-076-CV) (i.e., complete medium). On the first day of the experiment, H358 cells were seeded into a 96-well plate at a density of 1200 cells/well using complete medium, with 100 μL of cell suspension per well, and the plate was incubated overnight in a 37° C., 5% CO2 cell incubator. On the second day, the test compounds, prepared in complete medium and serially diluted, were added at 10 μL/well. The final concentrations of the compounds were 9 concentration points obtained by a 5-fold serial dilution from 10 μM. A blank control containing 0.5% DMSO was set up. The plate was incubated for 120 h in a 37° C., 5% CO2 cell incubator. On the seventh day, the 96-well cell plate was removed from the incubator, and CellTiter-Glo® Luminescent Cell Viability Assay (Promega, G7573) was added at 50 μL/well. After 10 min of room temperature incubation, luminescence signals were measured using a multifunctional microplate reader (PerkinElmer, EnVision® 2105). The IC50 values for the inhibitory activity of the compounds were calculated using Graphpad Prism software.

[1] = test system: ERK phosphorylation in H358 cells; experiment: H358 cell ERK phosphorylation inhibition assay (HTRF pERK/total ERK); settings: 3 h incubation, ratio of pERK/total ERK, read-out: IC50 (nM), inhibitory effects on ERK phosphorylation in H358 cells
Method: The inhibitory effects of the compounds of the present disclosure on ERK phosphorylation in H358 cells were measured. Below is a brief description of the experimental method: H358 cells (ATCC, CRL-5807) were cultured in RPMI1640 medium (Hyclone, SH30809.01) containing 10% fetal bovine serum (Corning, 35-076-CV) (i.e., complete medium). On the first day of the experiment, H358 cells were seeded into a 96-well plate at a density of 25,000 cells/well using complete medium, with 190 μL of cell suspension per well, and the plate was incubated overnight in a 37° C., 5% CO2 cell incubator. On the second day, the test compounds, prepared in complete medium and serially diluted, were added at 10 μL/well. The final concentrations of the compounds were 9 concentration points obtained by a 6-fold serial dilution from 10 μM. A blank control containing 0.5% DMSO was set up. The plate was incubated for 3 h in a 37° C., 5% CO2 cell incubator. After 3 h, the 96-well cell culture plate was removed from the incubator, and the culture medium was pipetted off. PBS (Shanghai BasalMedia Technologies Co., Ltd., B320) was added at 200 μL/well for a single wash. PBS was pipetted off, and lysis buffer (Cisbio, 64KL1FDF) containing a blocking agent (Cisbio, 64KB1AAC) was added at 50 μL/well. The plate was incubated on a shaker for 30 min at room temperature to lyse the cells. After lysis, the lysates were well mixed by pipetting, and 16 μL of lysate was transferred from each well to two HTRF 96-well assay plates (Cisbio, 66PL96100). Subsequently, 4 μL of a premixed phospho-ERK1/2 antibody solution (Cisbio, 64AERPEG) or 4 μL of a premixed total-ERK1/2 antibody solution (Cisbio, 64NRKPEG) was added to each of the plates. The plates were sealed with a plate sealer film, centrifuged for 1 min in a microplate centrifuge, and incubated overnight at room temperature in the dark. On the third day, fluorescence values at an excitation wavelength of 337 nm and emission wavelengths of 665 nm and 620 nm were measured using a PHERAstar multifunctional microplate reader (BMG Labtech, PHERAstar FS). The IC50 values for the inhibitory activity of the compounds were calculated using Graphpad Prism software, based on the compound concentration and the ratio of pERK/total ERK.

SMILES | IC50 (MIA PaCa-2 cells; Homo sapiens, MIA PaCa-2, 72 h) [nM] | IC50 (H358 cells; Homo sapiens, NCI-H358, 120 h) [nM] | IC50 ([1]; Homo sapiens, NCI-H358, 3 h) [nM] | IC50 [1] [nM] | IC50 (MIA PaCa-2 cells) [nM] | IC50 (H358 cells) [nM]
C=CC(=O)N1CCN2C(=O)c3cc(F)c(-c4ccc(F)c5sc(N)c(C#N)c45)c4c(F)nn(c34)CC[C@H]2C1 (atropisomer, axis not shown) [Example 8-P2, (S)-4-((S)-10-Acryloyl-2,4-difluoro-14-oxo-8,8a,9,10,11,12-hexahydro-7H,14H-pyrazino[1′,2′:5][1,5]diazocino[3,2,1-hi]indazol-3-yl)-2-amino-7-fluorobenzo[b]thiophene-3-carbonitrile] | 0.19 | 0.84 | 0.16 | – | – | –
C=CC(=O)N1CCN2C(=O)c3cc(F)c(-c4ccc(F)c5sc(N)c(C#N)c45)c4c(Cl)nn(c34)CC[C@H]2C1 (atropisomer, axis not shown) [Example 7-P2, (S)-4-((S)-10-Acryloyl-4-chloro-2-fluoro-14-oxo-8,8a,9,10,11,12-hexahydro-7H,14H-pyrazino[1′,2′:5,6][1,5]diazocino[3,2,1-hi]indazol-3-yl)-2-amino-7-fluorobenzo[b]thiophene-3-carbonitrile] | 0.28 | 0.74 | 0.13 | – | – | –
C=CC(=O)N1CCN2C(=O)c3cc(F)c(-c4ccc(F)c5sc(N)c(C#N)c45)c4c(C)nn(c34)CC[C@H]2C1 (atropisomer, axis not shown) [Example 9-P2, (S)-4-((S)-10-Acryloyl-2-fluoro-4-methyl-14-oxo-8,8a,9,10,11,12-hexahydro-7H,14H-pyrazino[1′,2′:5,6][1,5]diazocino[3,2,1-hi]indazol-3-yl)-2-amino-7-fluorobenzo[b]thiophene-3-carbonitrile] | 0.37 | 0.52 | – | 0.06 | – | –
C=C(F)C(=O)N1CCN2C(=O)c3cc(F)c(-c4ccc(F)c5sc(N)c(C#N)c45)c4cnn(c34)CC[C@H]2C1 (atropisomer, axis not shown) [Example 6-P1, (R)-2-Amino-7-fluoro-4-((S)-2-fluoro-10-(2-fluoroacryloyl)-14-oxo-8,8a,9,10,11,12-hexahydro-7H,14H-pyrazino[1′,2′:5,6][1,5]diazocino[3,2,1-hi]indazol-3-yl)benzo[b]thiophene-3-carbonitrile] | – | – | – | 1.45 | 13.9 | 9.75
C=C(F)C(=O)N1CCN2C(=O)c3cc(F)c(-c4ccc(F)c5sc(N)c(C#N)c45)c4cnn(c34)CC[C@H]2C1 (atropisomer, axis not shown) [Example 6-P2, (S)-2-Amino-7-fluoro-4-((S)-2-fluoro-10-(2-fluoroacryloyl)-14-oxo-8,8a,9,10,11,12-hexahydro-7H,14H-pyrazino[1′,2′:5,6][1,5]diazocino[3,2,1-hi]indazol-3-yl)benzo[b]thiophene-3-carbonitrile] | – | 5.73 | – | 0.35 | 5.39 | –
C=CC(=O)N1CCN2C(=O)c3cc(F)c(-c4ccc(F)c5sc(N)c(C#N)c45)c4nnn(c34)CC[C@H]2C1 (atropisomer, axis not shown) [Example 20-P2, (S)-4-((S)-9-Acryloyl-2-fluoro-12-oxo-7,7a,8,9,10,11-hexahydro-6H,12H-4,5,5a,9,11a-pentaazabenzo[5,6]cycloocta[1,2,3-cd]inden-3-yl)-2-amino-7-fluorobenzo[b]thiophene-3-carbonitrile] | 1.21 | 7.9 | – | 0.88 | – | –
C=CC(=O)N1CCN2C(=O)c3cc(F)c(-c4ccc(F)c5sc(N)c(C#N)c45)c4c(C)cn(c34)CC[C@H]2C1 (atropisomer, axis not shown) [Example 18-P2, (S)-4-((S)-10-Acryloyl-2-fluoro-4-methyl-14-oxo-8,8a,9,10,11,12-hexahydro-7H,14H-pyrazino[1′,2′:5,6][1,5]diazocino[3,2,1-hi]indol-3-yl)-2-amino-7-fluorobenzo[b]thiophene-3-carbonitrile] | 9.16 | 9.57 | 1.09 | – | – | –
C=C(F)C(=O)N1CCN2C(=O)c3cc(F)c(-c4ccc(F)c5sc(N)c(C#N)c45)c4c(C)nn(c34)CC[C@H]2C1 (atropisomer, axis not shown) [Example 15-P1, (R)-2-Amino-7-fluoro-4-((S)-2-fluoro-10-(2-fluoroacryloyl)-4-methyl-14-oxo-8,8a,9,10,11,12-hexahydro-7H,14H-pyrazino[1′,2′:5,6][1,5]diazocino[3,2,1-hi]indazol-3-yl)benzo[b]thiophene-3-carbonitrile] | – | – | – | 19.7 | 56.8 | 41.6
C=C(F)C(=O)N1CCN2C(=O)c3cc(F)c(-c4ccc(F)c5sc(N)c(C#N)c45)c4c(C)nn(c34)CC[C@H]2C1 (atropisomer, axis not shown) [Example 15-P2, (S)-2-Amino-7-fluoro-4-((S)-2-fluoro-10-(2-fluoroacryloyl)-4-methyl-14-oxo-8,8a,9,10,11,12-hexahydro-7H,14H-pyrazino[1′,2′:5,6][1,5]diazocino[3,2,1-hi]indazol-3-yl)benzo[b]thiophene-3-carbonitrile] | – | – | – | 3.94 | 7.75 | 4.21
C=C(F)C(=O)N1CCN2C(=O)c3cc(F)c(-c4ccc(F)c5sc(N)c(C#N)c45)c4c(F)nn(c34)CC[C@H]2C1 (atropisomer, axis not shown) [Example 16-P2, (S)-2-Amino-4-((S)-2,4-difluoro-10-(2-fluoroacryloyl)-14-oxo-8,8a,9,10,11,12-hexahydro-7H,14H-pyrazino[1′,2′:5,6][1,5]diazocino[3,2,1-hi]indazol-3-yl)-7-fluorobenzo[b]thiophene-3-carbonitrile] | 4.56 | 8 | 1.06 | – | – | –
C=CC(=O)N1CCN2C(=O)c3cc(F)c(-c4ccc(F)c5sc(N)c(C#N)c45)c4c(Cl)cn(c34)CC[C@H]2C1 (atropisomer, axis not shown) [Example 19-P2, (S)-4-((S)-10-Acryloyl-4-chloro-2-fluoro-14-oxo-8,8a,9,10,11,12-hexahydro-7H,14H-pyrazino[1′,2′:5,6][1,5]diazocino[3,2,1-hi]indol-3-yl)-2-amino-7-fluorobenzo[b]thiophene-3-carbonitrile] | 4.9 | 5.65 | 0.97 | – | – | –
